Source: US20070049564A1 (Wyeth, priority 2005, published 2007)
In brackets after ≈: the same amount, converted by molar mass.

Experiments:
Experiment in all cases: MIC, broth microdilution
[1] = test system: E. coli GC 2235; conditions: Escherichia coli, GC2235, E. coli GC 2235
[2] = test system: E. coli GC 2233; conditions: Escherichia coli, GC2233, E. coli GC 2233
Protocol: (§1) Antimicrobial susceptibility testing. The in vitro activities of the antibiotics are determined by the broth microdilution method as recommended by the National Committee for Clinical Laboratory Standards (NCCLS) (1). Mueller-Hinton II broth (MHBII)(BBL Cockeysville, Md.) is the medium employed in the testing procedures. Microtiter plates containing serial dilutions of each antimicrobial agent are inoculated with each organism to yield the appropriate density (10^5 CFU/ml) in a 100 μl final volume. The plates are incubated for 18-22 hours at 35° C. in ambient air.
Representative compounds were first incubated in mouse serum for an hour prior to the in vitro testing against a panel of selected gram-positive and gram-negative bacteria strains. All compounds were also pre-incubated in water for an hour prior to testing as control.

[3] = test system: E. coli GC 2234; conditions: Escherichia coli, GC2234, E. coli GC 2234
[4] = test system: E. coli GC 2270; conditions: Escherichia coli, GC2270, E. coli GC 2270
[5] = test system: E. coli GC 2271; conditions: Escherichia coli, GC2271, E. coli GC 2271
[6] = test system: E. coli GC 4559; conditions: Escherichia coli, GC4559, E. coli GC 4559
[7] = test system: E. coli GC 4560; conditions: Escherichia coli, GC4560, E. coli GC 4560
[8] = test system: E. coli GC 6465; conditions: Escherichia coli, GC6465, E. coli GC 6465
[9] = test system: E. coli GC 3226; conditions: Escherichia coli, GC3226, E. coli GC 3226
[10] = test system: E. coli GC 2203; conditions: Escherichia coli, GC2203, E. coli GC 2203
[11] = test system: E. coli GC 1073; conditions: Escherichia coli, GC1073, E. coli GC 1073
[12] = test system: S. typhimurium GC 2172; conditions: Salmonella enterica, TYPHIMURIUM, S. typhimurium GC 2172
[13] = test system: S. aureus GC 6466; conditions: Staphylococcus aureus, GC6466, S. aureus GC 6466
[14] = test system: S. aureus GC 6467; conditions: Staphylococcus aureus, GC6467, S. aureus GC 6467
[15] = test system: S. aureus GC 1079; conditions: Staphylococcus aureus, GC1079, S. aureus GC 1079
[16] = test system: S. aureus GC 6335; conditions: Staphylococcus aureus, GC6335, S. aureus GC 6335
[17] = test system: S. aureus GC 6469; conditions: Staphylococcus aureus, GC6469, S. aureus GC 6469
[18] = test system: E. faecium GC 4556; conditions: Enterococcus faecium, GC4556, E. faecium GC 4556
Protocol: as §1
Representative compounds were first incubated in mouse serum for an hour prior to the in vitro testing against a panel of selected gram-positive and gram-negative bacteria strains. All compounds were also pre-incubated in water for an hour prior to testing as control. Representative compounds of Formula I were incubated in human serum prior to MIC determination.

[19] = test system: S. pyogenes GC 4563; conditions: Streptococcus pyogenes, GC4563, S. pyogenes GC 4563
[20] = test system: S. agalactiae GC 4564; conditions: Streptococcus agalactiae, GC4564, S. agalactiae GC 4564

Compound: CCCCN(CC(=O)Nc1cc(N(C)C)c2c(c1O)C(=O)C1=C(O)[C@]3(O)C(=O)C(C(N)=O)=C(O)[C@@H](N(C)C)C3CC1C2)C(=O)OCOC(=O)C(C)C (stereo partly drawn) [Example 1, ({[(2-{[(7S,10aS)-9-(aminocarbonyl)-4,7-bis(dimethylamino)-1,8,10a,11-tetrahydroxy-10,12-dioxo-5,5a,6,6a,7,10,10a,12-octahydrotetracen-2-yl]amino}-2-oxoethyl)(butyl)amino]carbonyl}oxy)methyl 2-methylpropanoate]
- MIC ([1]; Mouse Serum pre-incubation): 0.5 µg/mL (≈ 0.685 µM)
- MIC ([1]; Water pre-incubation): 16 µg/mL (≈ 21.9 µM)
- MIC ([2]; Mouse Serum pre-incubation): 1 µg/mL (≈ 1.37 µM)
- MIC ([2]; Water pre-incubation): 16 µg/mL (≈ 21.9 µM)
- MIC ([3]; Mouse Serum pre-incubation): 0.5 µg/mL (≈ 0.685 µM)
- MIC ([3]; Water pre-incubation): 16 µg/mL (≈ 21.9 µM)
- MIC ([4]; Mouse Serum pre-incubation): 0.5 µg/mL (≈ 0.685 µM)
- MIC ([4]; Water pre-incubation): 16 µg/mL (≈ 21.9 µM)
- MIC ([5]; Mouse Serum pre-incubation): 0.5 µg/mL (≈ 0.685 µM)
- MIC ([5]; Water pre-incubation): 16 µg/mL (≈ 21.9 µM)
- MIC ([6]; Mouse Serum pre-incubation): 1 µg/mL (≈ 1.37 µM)
- MIC ([6]; Water pre-incubation): 32 µg/mL (≈ 43.8 µM)
- MIC ([7]; Mouse Serum pre-incubation): 0.5 µg/mL (≈ 0.685 µM)
- MIC ([7]; Water pre-incubation): 2 µg/mL (≈ 2.74 µM)
- MIC ([8]; Mouse Serum pre-incubation): 8 µg/mL (≈ 11 µM)
- MIC ([8]; Water pre-incubation): > 64 µg/mL
- MIC ([9]; Mouse Serum pre-incubation): 1 µg/mL (≈ 1.37 µM)
- MIC ([9]; Water pre-incubation): 32 µg/mL (≈ 43.8 µM)
- MIC ([10]; Mouse Serum pre-incubation): 0.5 µg/mL (≈ 0.685 µM)
- MIC ([10]; Water pre-incubation): 16 µg/mL (≈ 21.9 µM)
- MIC ([11]; Mouse Serum pre-incubation): 1 µg/mL (≈ 1.37 µM)
- MIC ([11]; Water pre-incubation): 32 µg/mL (≈ 43.8 µM)
- MIC ([12]; Mouse Serum pre-incubation): 4 µg/mL (≈ 5.48 µM)
- MIC ([12]; Water pre-incubation): > 64 µg/mL
- MIC ([13]; Mouse Serum pre-incubation): 1 µg/mL (≈ 1.37 µM)
- MIC ([13]; Water pre-incubation): 1 µg/mL (≈ 1.37 µM)
- MIC ([14]; Mouse Serum pre-incubation): 4 µg/mL (≈ 5.48 µM)
- MIC ([14]; Water pre-incubation): 4 µg/mL (≈ 5.48 µM)
- MIC ([15]; Mouse Serum pre-incubation): 2 µg/mL (≈ 2.74 µM)
- MIC ([15]; Water pre-incubation): 4 µg/mL (≈ 5.48 µM)
- MIC ([16]; Mouse Serum pre-incubation): 2 µg/mL (≈ 2.74 µM)
- MIC ([16]; Water pre-incubation): 4 µg/mL (≈ 5.48 µM)
- MIC ([17]; Mouse Serum pre-incubation): 2 µg/mL (≈ 2.74 µM)
- MIC ([17]; Water pre-incubation): 8 µg/mL (≈ 11 µM)
- MIC ([18]; Mouse Serum pre-incubation): 1 µg/mL (≈ 1.37 µM)
- MIC ([18]; Water pre-incubation): 4 µg/mL (≈ 5.48 µM)
- MIC ([19]; Mouse Serum pre-incubation): 0.25 µg/mL (≈ 0.343 µM)
- MIC ([19]; Water pre-incubation): 0.5 µg/mL (≈ 0.685 µM)
- MIC ([20]; Mouse Serum pre-incubation): 0.5 µg/mL (≈ 0.685 µM)
- MIC ([20]; Water pre-incubation): 1 µg/mL (≈ 1.37 µM)

Compound: CCCCN(CC(=O)Nc1cc(N(C)C)c2c(c1O)C(=O)C1=C(O)[C@]3(O)C(=O)C(C(N)=O)=C(O)[C@@H](N(C)C)C3CC1C2)C(=O)OCOC(=O)c1ccc(OC)cc1 (stereo partly drawn) [Example 2, ({[(2-{[(7S,10aS)-9-(aminocarbonyl)-4,7-bis(dimethylamino)-1,8,10a,11-tetrahydroxy-10,12-dioxo-5,5a,6,6a,7,10,10a,12-octahydrotetracen-2-yl]amino}-2-oxoethyl)(butyl)amino]carbonyl}oxy)methyl 4-methoxybenzoate]
- MIC ([1]; Mouse Serum pre-incubation): 2 µg/mL (≈ 2.52 µM)
- MIC ([1]; Water pre-incubation): 64 µg/mL (≈ 80.6 µM)
- MIC ([2]; Mouse Serum pre-incubation): 1 µg/mL (≈ 1.26 µM)
- MIC ([2]; Water pre-incubation): 64 µg/mL (≈ 80.6 µM)
- MIC ([3]; Mouse Serum pre-incubation): 1 µg/mL (≈ 1.26 µM)
- MIC ([3]; Water pre-incubation): 64 µg/mL (≈ 80.6 µM)
- MIC ([4]; Mouse Serum pre-incubation): 1 µg/mL (≈ 1.26 µM)
- MIC ([4]; Water pre-incubation): 64 µg/mL (≈ 80.6 µM)
- MIC ([5]; Mouse Serum pre-incubation): 1 µg/mL (≈ 1.26 µM)
- MIC ([5]; Water pre-incubation): 64 µg/mL (≈ 80.6 µM)
- MIC ([6]; Mouse Serum pre-incubation): 1 µg/mL (≈ 1.26 µM)
- MIC ([6]; Water pre-incubation): 64 µg/mL (≈ 80.6 µM)
- MIC ([7]; Mouse Serum pre-incubation): 0.25 µg/mL (≈ 0.315 µM)
- MIC ([7]; Water pre-incubation): 4 µg/mL (≈ 5.04 µM)
- MIC ([8]; Mouse Serum pre-incubation): 8 µg/mL (≈ 10.1 µM)
- MIC ([8]; Water pre-incubation): 64 µg/mL (≈ 80.6 µM)
- MIC ([9]; Mouse Serum pre-incubation): 4 µg/mL (≈ 5.04 µM)
- MIC ([9]; Water pre-incubation): 64 µg/mL (≈ 80.6 µM)
- MIC ([10]; Mouse Serum pre-incubation): 2 µg/mL (≈ 2.52 µM)
- MIC ([10]; Water pre-incubation): 64 µg/mL (≈ 80.6 µM)
- MIC ([11]; Mouse Serum pre-incubation): 4 µg/mL (≈ 5.04 µM)
- MIC ([11]; Water pre-incubation): 64 µg/mL (≈ 80.6 µM)
- MIC ([12]; Mouse Serum pre-incubation): > 64 µg/mL
- MIC ([12]; Water pre-incubation): > 64 µg/mL
- MIC ([13]; Mouse Serum pre-incubation): 1 µg/mL (≈ 1.26 µM)
- MIC ([13]; Water pre-incubation): 2 µg/mL (≈ 2.52 µM)
- MIC ([14]; Mouse Serum pre-incubation): 4 µg/mL (≈ 5.04 µM)
- MIC ([14]; Water pre-incubation): 8 µg/mL (≈ 10.1 µM)
- MIC ([15]; Mouse Serum pre-incubation): 8 µg/mL (≈ 10.1 µM)
- MIC ([15]; Water pre-incubation): 8 µg/mL (≈ 10.1 µM)
- MIC ([16]; Mouse Serum pre-incubation): 8 µg/mL (≈ 10.1 µM)
- MIC ([16]; Water pre-incubation): 8 µg/mL (≈ 10.1 µM)
- MIC ([17]; Mouse Serum pre-incubation): 2 µg/mL (≈ 2.52 µM)
- MIC ([17]; Water pre-incubation): 4 µg/mL (≈ 5.04 µM)
- MIC ([18]; Mouse Serum pre-incubation): 4 µg/mL (≈ 5.04 µM)
- MIC ([18]; Water pre-incubation): 8 µg/mL (≈ 10.1 µM)
- MIC ([19]; Mouse Serum pre-incubation): 0.25 µg/mL (≈ 0.315 µM)
- MIC ([19]; Water pre-incubation): 0.25 µg/mL (≈ 0.315 µM)
- MIC ([20]; Mouse Serum pre-incubation): 2 µg/mL (≈ 2.52 µM)
- MIC ([20]; Water pre-incubation): 2 µg/mL (≈ 2.52 µM)

Compound: CCCCN(CC(=O)Nc1cc(N(C)C)c2c(c1O)C(=O)C1=C(O)[C@]3(O)C(=O)C(C(N)=O)=C(O)[C@@H](N(C)C)C3CC1C2)C(=O)OCOC(=O)c1ccc(C)cc1 (stereo partly drawn) [Example 3, ({[(2-{[(7S,10aS)-9-(aminocarbonyl)-4,7-bis(dimethylamino)-1,8,10a,11-tetrahydroxy-10,12-dioxo-5,5a,6,6a,7,10,10a,12-octahydrotetracen-2-yl]amino}-2-oxoethyl)(butyl)amino]carbonyl}oxy)methyl 4-methylbenzoate]
- MIC ([1]; Mouse Serum pre-incubation): 1 µg/mL (≈ 1.29 µM)
- MIC ([1]; Water pre-incubation): > 64 µg/mL
- MIC ([2]; Mouse Serum pre-incubation): 1 µg/mL (≈ 1.29 µM)
- MIC ([2]; Water pre-incubation): > 64 µg/mL
- MIC ([3]; Mouse Serum pre-incubation): 1 µg/mL (≈ 1.29 µM)
- MIC ([3]; Water pre-incubation): > 64 µg/mL
- MIC ([4]; Mouse Serum pre-incubation): 1 µg/mL (≈ 1.29 µM)
- MIC ([4]; Water pre-incubation): > 64 µg/mL
- MIC ([5]; Mouse Serum pre-incubation): 1 µg/mL (≈ 1.29 µM)
- MIC ([5]; Water pre-incubation): > 64 µg/mL
- MIC ([6]; Mouse Serum pre-incubation): 2 µg/mL (≈ 2.57 µM)
- MIC ([6]; Water pre-incubation): > 64 µg/mL
- MIC ([7]; Mouse Serum pre-incubation): 0.5 µg/mL (≈ 0.643 µM)
- MIC ([7]; Water pre-incubation): 32 µg/mL (≈ 41.1 µM)
- MIC ([8]; Mouse Serum pre-incubation): 8 µg/mL (≈ 10.3 µM)
- MIC ([8]; Water pre-incubation): > 64 µg/mL
- MIC ([9]; Mouse Serum pre-incubation): 2 µg/mL (≈ 2.57 µM)
- MIC ([9]; Water pre-incubation): > 64 µg/mL
- MIC ([10]; Mouse Serum pre-incubation): 1 µg/mL (≈ 1.29 µM)
- MIC ([10]; Water pre-incubation): > 64 µg/mL
- MIC ([11]; Mouse Serum pre-incubation): 2 µg/mL (≈ 2.57 µM)
- MIC ([11]; Water pre-incubation): > 64 µg/mL
- MIC ([12]; Mouse Serum pre-incubation): 8 µg/mL (≈ 10.3 µM)
- MIC ([12]; Water pre-incubation): > 64 µg/mL
- MIC ([13]; Mouse Serum pre-incubation): 1 µg/mL (≈ 1.29 µM)
- MIC ([13]; Water pre-incubation): 4 µg/mL (≈ 5.14 µM)
- MIC ([14]; Mouse Serum pre-incubation): 4 µg/mL (≈ 5.14 µM)
- MIC ([14]; Water pre-incubation): 32 µg/mL (≈ 41.1 µM)
- MIC ([15]; Mouse Serum pre-incubation): 2 µg/mL (≈ 2.57 µM)
- MIC ([15]; Water pre-incubation): 32 µg/mL (≈ 41.1 µM)
- MIC ([16]; Mouse Serum pre-incubation): 2 µg/mL (≈ 2.57 µM)
- MIC ([16]; Water pre-incubation): 8 µg/mL (≈ 10.3 µM)
- MIC ([17]; Mouse Serum pre-incubation): 4 µg/mL (≈ 5.14 µM)
- MIC ([17]; Water pre-incubation): 32 µg/mL (≈ 41.1 µM)
- MIC ([18]; Mouse Serum pre-incubation): 2 µg/mL (≈ 2.57 µM)
- MIC ([18]; Water pre-incubation): 16 µg/mL (≈ 20.6 µM)
- MIC ([19]; Mouse Serum pre-incubation): 0.12 µg/mL (≈ 0.154 µM)
- MIC ([19]; Water pre-incubation): 0.25 µg/mL (≈ 0.321 µM)
- MIC ([20]; Mouse Serum pre-incubation): 1 µg/mL (≈ 1.29 µM)
- MIC ([20]; Water pre-incubation): 2 µg/mL (≈ 2.57 µM)
